{"source": "patent US20130096170A1", "about": "(priority 2011, published 2013)", "assay": "clinical", "settings": "human, plasma, intravenous, full evaluable population", "data": [{"smiles": "Cc1cccc([C@H](C)c2cnc[nH]2)c1C", "note": "[dexmedetomidine]", "values": [{"measurement": "clearance", "setting": "CL Median, Dose Level 3, LD 1.00/CD 0.7 μg/kg/hr", "result": 270, "unit": "mL/min"}, {"measurement": "clearance", "setting": "CL Median, Dose Level 4, LD 1.00/CD 2.00 μg/kg/hr", "result": 282, "unit": "mL/min"}, {"measurement": "clearance", "setting": "CL, Table 30 key summary (mean), Dose Level 1, LD 0.25/CD 0.2 μg/kg/hr", "result": 537, "unit": "mL/min"}, {"measurement": "clearance", "setting": "CL, Table 30 key summary (mean), Dose Level 2, LD 0.50/CD 0.4 μg/kg/hr", "result": 338, "unit": "mL/min"}, {"measurement": "clearance", "setting": "CL, Table 30 key summary (mean), Dose Level 3, LD 1.00/CD 0.7 μg/kg/hr", "result": 310, "unit": "mL/min"}, {"measurement": "clearance", "setting": "CL, Table 30 key summary (mean), Dose Level 4, LD 1.00/CD 2.00 μg/kg/hr", "result": 370, "unit": "mL/min"}, {"measurement": "Cmax", "setting": "Cmax Mean, Dose Level 1, LD 0.25/CD 0.2 μg/kg/hr", "result": 0.48, "unit": "ng/mL"}, {"measurement": "Cmax", "setting": "Cmax Mean, Dose Level 2, LD 0.50/CD 0.4 μg/kg/hr", "result": 0.848, "unit": "ng/mL"}, {"measurement": "Cmax", "setting": "Cmax Mean, Dose Level 3, LD 1.00/CD 0.7 μg/kg/hr", "result": 3.39, "unit": "ng/mL"}, {"measurement": "Cmax", "setting": "Cmax Mean, Dose Level 4, LD 1.00/CD 2.00 μg/kg/hr", "result": 3.09, "unit": "ng/mL"}, {"measurement": "Cmax", "setting": "Cmax Median, Dose Level 1, LD 0.25/CD 0.2 μg/kg/hr", "result": 0.266, "unit": "ng/mL"}, {"measurement": "Cmax", "setting": "Cmax Median, Dose Level 2, LD 0.50/CD 0.4 μg/kg/hr", "result": 0.581, "unit": "ng/mL"}, {"measurement": "Cmax", "setting": "Cmax Median, Dose Level 3, LD 1.00/CD 0.7 μg/kg/hr", "result": 0.966, "unit": "ng/mL"}, {"measurement": "Cmax", "setting": "Cmax Median, Dose Level 4, LD 1.00/CD 2.00 μg/kg/hr", "result": 2.69, "unit": "ng/mL"}, {"measurement": "Cmax", "setting": "Cmax, Table 30 key summary (mean), Dose Level 1, LD 0.25/CD 0.2 μg/kg/hr", "result": 0.48, "unit": "ng/mL"}, {"measurement": "Cmax", "setting": "Cmax, Table 30 key summary (mean), Dose Level 2, LD 0.50/CD 0.4 μg/kg/hr", "result": 0.848, "unit": "ng/mL"}, {"measurement": "Cmax", "setting": "Cmax, Table 30 key summary (mean), Dose Level 3, LD 1.00/CD 0.7 μg/kg/hr", "result": 3.39, "unit": "ng/mL"}, {"measurement": "Cmax", "setting": "Cmax, Table 30 key summary (mean), Dose Level 4, LD 1.00/CD 2.00 μg/kg/hr", "result": 3.09, "unit": "ng/mL"}, {"measurement": "Tmax", "setting": "Tmax Mean, Dose Level 1, LD 0.25/CD 0.2 μg/kg/hr", "result": 7.31, "unit": "h"}, {"measurement": "Tmax", "setting": "Tmax Mean, Dose Level 2, LD 0.50/CD 0.4 μg/kg/hr", "result": 8.8, "unit": "h"}, {"measurement": "Tmax", "setting": "Tmax Mean, Dose Level 3, LD 1.00/CD 0.7 μg/kg/hr", "result": 2.17, "unit": "h"}, {"measurement": "Tmax", "setting": "Tmax Mean, Dose Level 4, LD 1.00/CD 2.00 μg/kg/hr", "result": 6.82, "unit": "h"}, {"measurement": "Tmax", "setting": "Tmax Median, Dose Level 1, LD 0.25/CD 0.2 μg/kg/hr", "result": 6.04, "unit": "h"}, {"measurement": "Tmax", "setting": "Tmax Median, Dose Level 2, LD 0.50/CD 0.4 μg/kg/hr", "result": 5.68, "unit": "h"}, {"measurement": "Tmax", "setting": "Tmax Median, Dose Level 3, LD 1.00/CD 0.7 μg/kg/hr", "result": 0.367, "unit": "h"}, {"measurement": "Tmax", "setting": "Tmax Median, Dose Level 4, LD 1.00/CD 2.00 μg/kg/hr", "result": 5.42, "unit": "h"}, {"measurement": "Vd", "setting": "Vd Mean, Dose Level 1, LD 0.25/CD 0.2 μg/kg/hr", "result": 62, "unit": "L"}, {"measurement": "Vd", "setting": "Vd Mean, Dose Level 2, LD 0.50/CD 0.4 μg/kg/hr", "result": 50.6, "unit": "L"}, {"measurement": "Vd", "setting": "Vd Mean, Dose Level 3, LD 1.00/CD 0.7 μg/kg/hr", "result": 52.3, "unit": "L"}, {"measurement": "Vd", "setting": "Vd Mean, Dose Level 4, LD 1.00/CD 2.00 μg/kg/hr", "result": 62.2, "unit": "L"}, {"measurement": "Vd", "setting": "Vd Median, Dose Level 2, LD 0.50/CD 0.4 μg/kg/hr", "result": 40.7, "unit": "L"}, {"measurement": "Vd", "setting": "Vd Median, Dose Level 3, LD 1.00/CD 0.7 μg/kg/hr", "result": 51.3, "unit": "L"}, {"measurement": "Vd", "setting": "Vd Median, Dose Level 4, LD 1.00/CD 2.00 μg/kg/hr", "result": 57.8, "unit": "L"}, {"measurement": "Vd", "setting": "Vd, Table 30 key summary (mean), Dose Level 1, LD 0.25/CD 0.2 μg/kg/hr", "result": 62, "unit": "L"}, {"measurement": "Vd", "setting": "Vd, Table 30 key summary (mean), Dose Level 2, LD 0.50/CD 0.4 μg/kg/hr", "result": 50.6, "unit": "L"}, {"measurement": "Vd", "setting": "Vd, Table 30 key summary (mean), Dose Level 3, LD 1.00/CD 0.7 μg/kg/hr", "result": 52.3, "unit": "L"}, {"measurement": "Vd", "setting": "Vd, Table 30 key summary (mean), Dose Level 4, LD 1.00/CD 2.00 μg/kg/hr", "result": 62.2, "unit": "L"}, {"measurement": "Vd", "setting": "Vss Mean, Dose Level 1, LD 0.25/CD 0.2 μg/kg/hr", "result": 56.8, "unit": "L"}, {"measurement": "Vd", "setting": "Vss Mean, Dose Level 3, LD 1.00/CD 0.7 μg/kg/hr", "result": 32.8, "unit": "L"}, {"measurement": "Vd", "setting": "Vss Mean, Dose Level 4, LD 1.00/CD 2.00 μg/kg/hr", "result": 43.7, "unit": "L"}, {"measurement": "Vd", "setting": "Vss Median, Dose Level 1, LD 0.25/CD 0.2 μg/kg/hr", "result": 40.3, "unit": "L"}, {"measurement": "Vd", "setting": "Vss Median, Dose Level 2, LD 0.50/CD 0.4 μg/kg/hr", "result": 30.6, "unit": "L"}, {"measurement": "Vd", "setting": "Vss Median, Dose Level 3, LD 1.00/CD 0.7 μg/kg/hr", "result": 30.4, "unit": "L"}, {"measurement": "Vd", "setting": "Vss Median, Dose Level 4, LD 1.00/CD 2.00 μg/kg/hr", "result": 33.1, "unit": "L"}, {"measurement": "clearance", "setting": "Weight-adjusted CL Mean, Dose Level 1, LD 0.25/CD 0.2 μg/kg/hr", "result": 17.3, "unit": "mL/min/kg"}, {"measurement": "clearance", "setting": "Weight-adjusted CL Mean, Dose Level 2, LD 0.50/CD 0.4 μg/kg/hr", "result": 15.7, "unit": "mL/min/kg"}, {"measurement": "clearance", "setting": "Weight-adjusted CL Mean, Dose Level 3, LD 1.00/CD 0.7 μg/kg/hr", "result": 14, "unit": "mL/min/kg"}, {"measurement": "clearance", "setting": "Weight-adjusted CL Mean, Dose Level 4, LD 1.00/CD 2.00 μg/kg/hr", "result": 14.2, "unit": "mL/min/kg"}, {"measurement": "clearance", "setting": "Weight-adjusted CL Median, Dose Level 1, LD 0.25/CD 0.2 μg/kg/hr", "result": 19.9, "unit": "mL/min/kg"}, {"measurement": "clearance", "setting": "Weight-adjusted CL Median, Dose Level 2, LD 0.50/CD 0.4 μg/kg/hr", "result": 14.7, "unit": "mL/min/kg"}, {"measurement": "clearance", "setting": "Weight-adjusted CL Median, Dose Level 3, LD 1.00/CD 0.7 μg/kg/hr", "result": 14.7, "unit": "mL/min/kg"}, {"measurement": "clearance", "setting": "Weight-adjusted CL Median, Dose Level 4, LD 1.00/CD 2.00 μg/kg/hr", "result": 13.4, "unit": "mL/min/kg"}, {"measurement": "clearance", "setting": "Weight-adjusted CL, Table 30 key summary (mean), Dose Level 1, LD 0.25/CD 0.2 μg/kg/hr", "result": 16.7, "unit": "mL/min/kg"}, {"measurement": "clearance", "setting": "Weight-adjusted CL, Table 30 key summary (mean), Dose Level 2, LD 0.50/CD 0.4 μg/kg/hr", "result": 15, "unit": "mL/min/kg"}, {"measurement": "clearance", "setting": "Weight-adjusted CL, Table 30 key summary (mean), Dose Level 3, LD 1.00/CD 0.7 μg/kg/hr", "result": 13.3, "unit": "mL/min/kg"}, {"measurement": "clearance", "setting": "Weight-adjusted CL, Table 30 key summary (mean), Dose Level 4, LD 1.00/CD 2.00 μg/kg/hr", "result": 13.3, "unit": "mL/min/kg"}, {"measurement": "Vd", "setting": "Weight-adjusted Vd Mean, Dose Level 1, LD 0.25/CD 0.2 μg/kg/hr", "result": 2.17, "unit": "L/kg"}, {"measurement": "Vd", "setting": "Weight-adjusted Vd Mean, Dose Level 2, LD 0.50/CD 0.4 μg/kg/hr", "result": 2.31, "unit": "L/kg"}, {"measurement": "Vd", "setting": "Weight-adjusted Vd Mean, Dose Level 3, LD 1.00/CD 0.7 μg/kg/hr", "result": 2.44, "unit": "L/kg"}, {"measurement": "Vd", "setting": "Weight-adjusted Vd Mean, Dose Level 4, LD 1.00/CD 2.00 μg/kg/hr", "result": 2.48, "unit": "L/kg"}, {"measurement": "Vd", "setting": "Weight-adjusted Vd Median, Dose Level 1, LD 0.25/CD 0.2 μg/kg/hr", "result": 2.43, "unit": "L/kg"}, {"measurement": "Vd", "setting": "Weight-adjusted Vd Median, Dose Level 2, LD 0.50/CD 0.4 μg/kg/hr", "result": 2.49, "unit": "L/kg"}, {"measurement": "Vd", "setting": "Weight-adjusted Vd Median, Dose Level 3, LD 1.00/CD 0.7 μg/kg/hr", "result": 2.19, "unit": "L/kg"}, {"measurement": "Vd", "setting": "Weight-adjusted Vd Median, Dose Level 4, LD 1.00/CD 2.00 μg/kg/hr", "result": 2.15, "unit": "L/kg"}, {"measurement": "Vd", "setting": "Weight-adjusted Vd, Table 30 key summary (mean), Dose Level 1, LD 0.25/CD 0.2 μg/kg/hr", "result": 2.2, "unit": "L/kg"}, {"measurement": "Vd", "setting": "Weight-adjusted Vd, Table 30 key summary (mean), Dose Level 2, LD 0.50/CD 0.4 μg/kg/hr", "result": 2.3, "unit": "L/kg"}, {"measurement": "Vd", "setting": "Weight-adjusted Vd, Table 30 key summary (mean), Dose Level 3, LD 1.00/CD 0.7 μg/kg/hr", "result": 2.4, "unit": "L/kg"}, {"measurement": "Vd", "setting": "Weight-adjusted Vd, Table 30 key summary (mean), Dose Level 4, LD 1.00/CD 2.00 μg/kg/hr", "result": 2.5, "unit": "L/kg"}, {"measurement": "half-life", "setting": "t1/2, Table 30 key summary (mean), Dose Level 1, LD 0.25/CD 0.2 μg/kg/hr", "result": 1.5, "unit": "h"}, {"measurement": "half-life", "setting": "t1/2, Table 30 key summary (mean), Dose Level 2, LD 0.50/CD 0.4 μg/kg/hr", "result": 1.7, "unit": "h"}, {"measurement": "half-life", "setting": "t1/2, Table 30 key summary (mean), Dose Level 3, LD 1.00/CD 0.7 μg/kg/hr", "result": 2, "unit": "h"}, {"measurement": "half-life", "setting": "t1/2, Table 30 key summary (mean), Dose Level 4, LD 1.00/CD 2.00 μg/kg/hr", "result": 2.1, "unit": "h"}, {"measurement": "half-life", "setting": "t1/2 Mean, Dose Level 1, LD 0.25/CD 0.2 μg/kg/hr", "result": 1.55, "unit": "h"}, {"measurement": "half-life", "setting": "t1/2 Mean, Dose Level 2, LD 0.50/CD 0.4 μg/kg/hr", "result": 1.74, "unit": "h"}, {"measurement": "half-life", "setting": "t1/2 Mean, Dose Level 3, LD 1.00/CD 0.7 μg/kg/hr", "result": 2.04, "unit": "h"}, {"measurement": "half-life", "setting": "t1/2 Mean, Dose Level 4, LD 1.00/CD 2.00 μg/kg/hr", "result": 2.14, "unit": "h"}, {"measurement": "half-life", "setting": "t1/2 Median, Dose Level 1, LD 0.25/CD 0.2 μg/kg/hr", "result": 1.56, "unit": "h"}, {"measurement": "half-life", "setting": "t1/2 Median, Dose Level 2, LD 0.50/CD 0.4 μg/kg/hr", "result": 1.69, "unit": "h"}, {"measurement": "half-life", "setting": "t1/2 Median, Dose Level 3, LD 1.00/CD 0.7 μg/kg/hr", "result": 1.79, "unit": "h"}, {"measurement": "half-life", "setting": "t1/2 Median, Dose Level 4, LD 1.00/CD 2.00 μg/kg/hr", "result": 2.12, "unit": "h"}]}]}
